{"source": "patent US9211244B2", "about": "“Method for anti-skin aging using caffeamide derivative” (CHINA MEDICAL UNIVERSITY, priority 2013, dated 2015)", "key": {"[1]": {"assay": "Scavenging test of DPPH free radical", "assay_type": "biochemical", "conditions": "for Scavenging efficiency (%): 200 μM DPPH, 30 minutes", "procedure": "DPPH (1,1-diphenyl-2-picrylhydrazyl) was used as a source of free radicals to examine the scavenging efficiency of the caffeamide derivatives prepared in Example 1 on free radicals. […] The mixtures were placed in the dark at room temperature for 30 minutes and its absorbance at 517 nm was measured by an enzyme immunoassay analyzer. In this experiment, 50 volume % propanediol was used to replace extracts and to be a control group, ascorbic acid (vitamin C) was used as a positive control group, and methanol was used to replace DPPH as the background value. The scavenging efficiency of caffeamide derivatives on free radicals was examined by the formula blow, and the results are shown in Table 2, FIG. 1a, and FIG. 1b. Scavenging efficiency(%)=[the absorbance of the control group−the absorbance of the experimental group/the absorbance of the control group]×100%."}, "[2]": {"system": "human fibroblast Hs68 cells", "assay": "Cellular toxicity evaluation, MTT assay", "assay_type": "cell-based", "conditions": "24 hours", "procedure": "MTT (3-(4,5-dimethylthiazol-2-yl)-2,5-diphenyl tetrazolium bromide) assay was used to determine the cellular toxicity of the caffeamide derivatives described herein. First, different concentrations (0 μM to 100 μM) of the compounds of formula (1) or formula (2) prepared in Example 1 of the present invention were added, respectively, into a 96-well microplate which containing human fibroblast Hs68 cells (1×10^4 cells per well). After the cells were incubated in an incubator at 37° C. and 5% CO2 for 24 hours, 15 μl of MTT solution (0.5 mg/ml; dissolved in PBS) was added into the microplate and the human fibroblast Hs68 cells were incubated for 3 hours. Next, 75 μl SDS (sodium dodecyl sulfate) solution (10% SDS was dissolved in 0.01N HCl) was added into the microplate. After the cells were maintained for 24 hours, the absorbances of each well were measured at a wavelength of 570 nm by an enzyme immunoassay analyzer. Finally, the cell survival rate was calculated by the following formula to observe the cellular toxicity of compounds. The results are shown in Table 5, FIG. 10a and FIG. 10b. Cell survival rate(%)=absorbance of the experimental group/absorbance of the control group."}, "MMP-3": {"system": "MMP-3", "assay": "MMP expression, western blot, UVB-irradiated Hs68 cells", "assay_type": "cell-based, human", "conditions": "5 μM; UVB 40 mJ/cm^2; 48 hours", "procedure": "(§1) Human fibroblast Hs68 cells (5×10^5) (the number of Bioresource Collection and Research Center (BCRC): 60038) were counted and incubated in a culture dish with a diameter of 10 cm (the culture dish components were adjusted by L-glutamine (4 mM) to have 1.5 g/L NaHCO3, 4.5 g/L glucose, and 90% Dulbecco's Modified Eagle's Medium with 10% fetal bovine serum (FBS)). The medium was removed until human fibroblast Hs68 cells grow to a confluence of 80%, and the cells were then washed once with 5 ml PBS (phosphate buffered saline). Then, 3 ml phenol red-free medium which contain different concentrations (0 μM to 25 μM) of the compounds of formula (1) or formula (2) prepared in Example 1 were added into the culture dish. After incubating for 1 hour, the cells were irradiated by UV light (UVB with an intensity of 40 mJ/cm^2) for 15 seconds. Next, the phenol red-free medium which contains different concentrations (0 μM to 25 μM) of the compounds of formula (1) or formula (2) prepared in Example 1 were added into the culture dish sequentially. After incubation in an incubator (37° C., 5% CO2) for 48 hours, the cells were collected.\n(§2) The collected cells were treated with a sonication buffer (containing Na3VO4 (100 μM), phenylmethanesulfonyl fluoride (PMSFL, 100 mg/ml), leupeptin (20 mg/ml), Tris-HCl (pH 7.4, 50 μM), NaCl (37.5 μM), DL-dithiothretiol (250 μM), sodium deoxycholate (3 μM), EDTA (1 μM), SDS (0.1%), and Igepal™ CA-630 (Sigma-Aldrich, 1%)) and sonicated to rupture the cell membranes. Then, the organelles and fragments of the cells were precipitated by centrifugation, and the supernatant, which contains proteins in the cytosol was collected. Next, the obtained proteins were separated by SDS-PAGE, and transferred to a membrane by western blotting. Antibodies were used to recognize the targeted proteins, such as MMP-1, MMP-3, MMP-9, and actin. The images were recorded by a Luminescent imagination technology (LAS-4000, FUJIFILM), and the variation of the proteins expression levels were determined by a quantitative analysis software (multi Gauge 2.2, Steware Technology Inc.)."}, "MMP-1": {"system": "MMP-1", "assay": "MMP expression, western blot, UVB-irradiated Hs68 cells", "assay_type": "cell-based, human", "conditions": "5 μM; UVB 40 mJ/cm^2; 48 hours", "procedure": "as §1, §2"}, "c-Jun": {"system": "c-Jun", "assay": "Inhibition test of AP-1 gene transcription factors, western blot", "assay_type": "cell-based, human", "conditions": "UVB 40 mJ/cm^2", "excerpt": "(§3) When cells are irradiated by UV rays, JNK, p38 and c-Jun in the cells will translocated into the nucleus, and c-For will translocate into the nucleus under the regulation of ERK and p38. The two subunits of c-Jun and c-Fos will combine to form an AP-1 gene transcription factor to participate in gene expression process and increase the mRNA transcription level of MMP-1. On the other hand, the two subunits can also reduce the gene expression level of procollagen al of Type I collagen. Therefore, in this experiment, the expression of AP-1 in the nucleus was analyzed by western blotting.\n(§4) However, after the cells were treated with the compound of formula (2) prepared in Example 1, the protein expression levels of c-Fos, p-c-Jun, and c-Jun induced by UVB were inhibited in a concentration dependent way. Specifically, when the concentration of the compound of formula (2) was 10 μM, the expression level of c-Fos was 1.1 as compared to that of the untreated cells."}, "c-Fos": {"system": "c-Fos", "assay": "Inhibition test of AP-1 gene transcription factors, western blot", "assay_type": "cell-based, human", "conditions": "5 μM; UVB 40 mJ/cm^2", "excerpt": "as §3, §4"}, "procollagen-1": {"system": "procollagen-1", "assay": "Promotion test of the expression of collagen, western blot", "assay_type": "cell-based, human", "conditions": "25 μM; UVB 40 mJ/cm^2", "procedure": "(§5) It has been known that Smad3 protein can promote the expression level of procollagen-1, and Smad7 protein can inhibit the expression level of Smad3 protein. After cells were irradiated with UV rays, the expression levels of procollagen-1 and Smad3 protein will reduce and the expression level of Smad7 protein will increase. Therefore, in this experiment, the expression levels of intracellular procollagen-1 protein, Smad3 protein and Smad7 protein were analyzed by western blotting.\n(§6) Specifically, when the concentration of the compound of formula (2) was 25 μM, the protein expression level of Smad7 was 1.1 times as compared to that of the untreated cells."}, "Smad7": {"system": "Smad7", "assay": "Promotion test of the expression of collagen, western blot", "assay_type": "cell-based, human", "conditions": "UVB 40 mJ/cm^2", "procedure": "as §5, §6"}, "Smad3": {"system": "Smad3", "assay": "Promotion test of the expression of collagen, western blot", "assay_type": "cell-based, human", "conditions": "UVB 40 mJ/cm^2; result in words", "procedure": "as §5, §6"}, "[3]": {"system": "human fibroblast Hs68 cells", "assay": "Scavenging test of ROS free radicals in UVB-irradiated cells", "assay_type": "cell-based", "conditions": "UVB 80 mJ/cm^2, 24 hours", "procedure": "After incubated in an incubator (37° C., 5% CO2) for 24 hours, the ROS level was examined."}, "p-JNK": {"system": "p-JNK", "assay": "Inhibition test of the phosphorylation of MAPK, western blot", "assay_type": "cell-based, human", "conditions": "UVB 40 mJ/cm^2", "procedure": "(§7) It has been known that the skin photo-aging caused by UV rays will increase the content of MMPs in the dermis by the phosphorylation of MAPK. In this experiment, the effect of caffeamide derivative on the phosphorylation of MAPK in the cells was analyzed by western blotting.\n(§8) After being treated with the compound of formula (2) prepared in Example 1, the protein expression levels of the MAPKs induced by UVB were inhibited in a concentration dependent way. Specifically, when the concentration of the compound of formula (2) was 10 μM, the expression level of P-ERK was 1.1 times as compared to that of the untreated cells. When the concentration of the compound of formula (2) was 5 μM, the expression levels of p-JNK and p-p38 were both 1.1 times as compared to that of the untreated cells."}, "p-ERK": {"system": "p-ERK", "assay": "Inhibition test of the phosphorylation of MAPK, western blot", "assay_type": "cell-based, human", "conditions": "UVB 40 mJ/cm^2", "procedure": "as §7, §8"}, "p-p38": {"system": "p-p38", "assay": "Inhibition test of the phosphorylation of MAPK, western blot", "assay_type": "cell-based, human", "conditions": "UVB 40 mJ/cm^2", "procedure": "as §7, §8"}}}
{"smiles": "O=C1O[C@H]([C@@H](O)CO)C(O)=C1O", "note": "[Ascorbic acid, ascorbic acid, reference compound]", "values": [{"measurement": "Scavenging efficiency (%)", "setting": "[1]; 25 μM", "result": "57.5 ± 1.4", "unit": "%"}, {"measurement": "Scavenging efficiency (%)", "setting": "[1]; 50 μM", "result": "89.8 ± 0.9", "unit": "%"}]}
{"smiles": "O=C(C=Cc1ccc(O)c(O)c1)NCCc1ccccc1", "note": "[Compound of formula (1)]", "values": [{"measurement": "EC50", "setting": "[1]; DPPH free radical scavenging, read-out: SC50 (the source's name)", "result": "22.1 ± 1.3", "unit": "µM"}, {"measurement": "Cell survival rate (%)", "setting": "[2]; 5 μM", "result": "99.9 ± 1.8", "unit": "%"}, {"measurement": "Cell survival rate (%)", "setting": "[2]; 10 μM", "result": "99.5 ± 4.6", "unit": "%"}, {"measurement": "Cell survival rate (%)", "setting": "[2]; 25 μM", "result": "104.2 ± 3.7", "unit": "%"}, {"measurement": "Cell survival rate (%)", "setting": "[2]; 50 μM", "result": "107.8 ± 1.2", "unit": "%"}, {"measurement": "expression level of MMP-3 as compared to that of the untreated cells", "setting": "MMP-3", "result": 1.0, "unit": "times"}, {"measurement": "expression level of MMP-1 as compared to that of the untreated cells", "setting": "MMP-1", "result": 1.0, "unit": "times"}, {"measurement": "expression level of c-Jun as compared to that of the untreated cells", "setting": "c-Jun; 10 μM", "result": 1.1, "unit": "times"}, {"measurement": "expression level of c-Jun as compared to that of the untreated cells", "setting": "c-Jun; 25 μM", "result": 1.2, "unit": "times"}, {"measurement": "expression level of c-Fos as compared to that of the untreated cells", "setting": "c-Fos", "result": 1.1, "unit": "times"}, {"measurement": "protein expression level of procollagen-1 decreased by UVB, reversed to", "setting": "procollagen-1", "result": 0.7, "unit": "times"}, {"measurement": "protein expression level of Smad7 as compared to that of the untreated cells", "setting": "Smad7; 5 μM", "result": 1.2, "unit": "times"}, {"measurement": "protein expression level of Smad7 as compared to that of the untreated cells", "setting": "Smad7; 10 μM", "result": 0.7, "unit": "times"}, {"measurement": "protein expression level of Smad7 as compared to that of the untreated cells", "setting": "Smad7; 25 μM", "result": 0.7, "unit": "times"}, {"measurement": "effect on protein expression level of Smad3", "setting": "Smad3", "result": "not affected"}, {"measurement": "Concentration of ROS (times compared to the untreated cells)", "setting": "[3]; 5 μM", "result": "1.2 ± 0.13", "unit": "times"}, {"measurement": "Concentration of ROS (times compared to the untreated cells)", "setting": "[3]; 10 μM", "result": "1.0 ± 0.21", "unit": "times"}, {"measurement": "Concentration of ROS (times compared to the untreated cells)", "setting": "[3]; 25 μM", "result": "0.8 ± 0.07", "unit": "times"}, {"measurement": "Concentration of ROS (times compared to the untreated cells)", "setting": "[3]; 25 μM, listed as compound of formula (1)", "result": 0.8, "unit": "times"}, {"measurement": "expression level of p-JNK as compared to that of the untreated cells", "setting": "p-JNK; 10 μM", "result": 1.2, "unit": "times"}, {"measurement": "expression level of p-JNK as compared to that of the untreated cells", "setting": "p-JNK; 25 μM", "result": 0.8, "unit": "times"}, {"measurement": "expression level of p-ERK as compared to that of the untreated cells", "setting": "p-ERK; 10 μM", "result": 1.2, "unit": "times"}, {"measurement": "expression level of p-ERK as compared to that of the untreated cells", "setting": "p-ERK; 25 μM", "result": 1.3, "unit": "times"}, {"measurement": "expression level of p-p38 as compared to that of the untreated cells", "setting": "p-p38; 10 μM", "result": 1.2, "unit": "times"}, {"measurement": "expression level of p-p38 as compared to that of the untreated cells", "setting": "p-p38; 25 μM", "result": 1.0, "unit": "times"}]}
